Measured values as given in patent US11039613B2, “Germination promoters” (SYNGENTA PARTICIPATIONS AG, priority 2017, dated 2021).
Like-named read-outs stand apart in the source and are kept apart here.

Legend:
[1] = Hydrolytic stability; type: physicochemical; details: 40° C.; for half-life: aqueous buffer/acetonitrile solution, pH 9, pH 9, buffer/acetonitrile
Procedure: Prior to conducting the individual hydrolytic stability assays, stock solutions containing 1000 ppm of each test compound (i.e. compounds III-1 and P1) were prepared in acetonitrile.
The reagents used in the assays were prepared as follows. A 20 mM buffer solution was prepared from a stock solution of 20 mM mixed acetate, borate and phosphate buffer and the pH adjusted to 7 or 9 as required.
Test solutions were prepared in LC vials for each test compound in the following manner: Hydrolytic Stability: Buffer (750 μL)+acetonitrile (250 μL)+compound stock solution (2 to 40 μL).
The buffers were initially dispensed into separate glass LC vials, placed into an autosampler complete with thermostat set at 40° C. and allowed to equilibrate for 30 minutes prior to starting the individual assays.
Analysis was carried out on Waters LCMS systems under reverse phase conditions using 10 cm C18 columns and acetonitrile (HPLC grade) acidified water (0.2% formic acid) mobile phase at a flow rate of 1 ml min-1. Peak detection was at the optimum wavelength (230-250 nm) and peak areas were used for quantification
Reactions were initiated by addition of the compound solution and monitored through a series of repeat injections made directly from the vial into the HPLC system at regular time intervals. Initial and subsequent measurements of peak area attributable to the test compound were used to fit exponential half-lives and calculate first-order rate constants.
Consequently, the percentage of compound remaining was recorded at the last assessment time.

[2] = test system: NK Falkone corn seeds; assay: Corn seed germination, cold stress (15° C.); type: in vivo; details: for T50 (% vs control): control T50 = 110 hours
Procedure: The effect of compounds of Formula (II-1 and III-1) on the germination of NK Falkone corn seeds under salt and cold stress was evaluated as follows.
(§1) NK Falkone corn seeds (harvested in 2015) were sorted by size using a sieve to keep away round seeds.
(§2) The corn seeds were placed in 24 well plates (each plate was considered as one experimental unit or replicate). Germination was initiated by the addition of 200 μl of distilled water containing 0.5% DMSO per well. 8 replicates (i.e. 8 plates) were used for each treatment characterization. Plates were sealed using seal foil (Polyolefin Art. Nr. 900320) from HJ-BIOANALYTIK. All plates were placed in two carrousels in a climatic chamber at 15° C. The experiment was laid out in a completely randomized design in climatic chamber with 60% Relative Humidity.
(§3) Germination was followed over time by taking photographs at different time points. Image analysis was performed automatically with a macro which was developed using the Image J software. A dynamic analysis of germination was carried out by fitting a logistic curve. Three parameters were calculated from the logistic curve: the T50; the slope and the plateau. All three parameters have a high agronomical relevance and are key requirements to ensure a good early crop-establishment. The T50 and slope for a selection of compounds are outlined in Table 2 below. All the values are expressed as percentages compared to an untreated control. All the three parameters are calculated considering 8 replicates and the kinetic parameters are separately determined for each germination curve. Data in bold indicate germination enhancing statistically significant differences between treated seeds and untreated control (p<0.05). T50 corresponds to the time needed for half of the seed population to germinate. Higher negative %-values indicate faster germination. Slope indicates how synchronous the germination of the seed population is. Positive values indicate steeper curve. The steeper the curve, the better and more uniform the germination is.

[3] = test system: NK Falkone corn seeds; assay: Corn seed germination, salt (NaCl, 100 mM) and cold stresses (15° C.); type: in vivo; details: cold 15° C. and salt 100 mM NaCl
Procedure: as §1, §2, §3
(§4) The effect of compounds of Formula (III-1 and P1) on the germination of NK Falkone corn seeds under salt and cold stress was evaluated as follows.
The experimental protocol was the same as in Example B1, except that germination was initiated by the addition of 200 μl of distilled water containing 0.5% DMSO and 100 mM NaCl per well.

[4] = test system: NK Falkone corn seeds; assay: Corn seed germination, salt (NaCl, 100 mM) stress and optimal temperature (23° C.); type: in vivo; details: salt (NaCl) stress
Procedure: as §1
as §2, with “Germination was initiated by the addition of 200 μl of distilled water containing 0.5% DMSO per well.” left out
as §3
The experimental protocol was the same as in Example B1, except that the plates were placed in a climatic chamber at 23° C.

[5] = test system: NK Falkone corn seeds; assay: Corn seed germination, osmotic stress (PEG 2%) and cold stress (15° C.); type: in vivo; details: osmotic (PEG 2%) and cold 15° C.
Procedure: as §1, §2, §3, §4
The experimental protocol was the same as in Example B1, except that germination was initiated by the addition of 200 μl of distilled water containing 0.5% DMSO and 2% PEG per well.

For CC1=CC(O/C=C2/C(=O)NC3c4ccccc4CC23)N(c2cc(C(F)(F)F)cc(C(F)(F)F)c2)C1=O (stereo not drawn) [Compound P1, reference compound], the half-life ([1]; less polar isomer, read-out: Hydrolytic stability pH9 (t½), less polar isomer (converted)) was 59 h, the half-life ([1]; more polar isomer, read-out: Hydrolytic stability pH9 (t½), more polar isomer) was greater than 59 h and the “% remaining, less polar isomer” value ([1]; pH 9, at 17.3 hours, less polar isomer) was 85.5% remaining at 17.3 hours. The “% remaining, more polar isomer” value ([1]; pH 9, at 17.3 hours, more polar isomer) was 97.9% remaining at 17.3 hours, the “Slope (% vs control)” value ([2]; Rate 0.4 μM) was 18.4 % vs control and the “T50 (% vs control)” value ([2]; Rate 0.4 μM) was −2.2 % vs control. The “Slope (% vs control)” value ([2]; Rate 2 μM) was 7.36 % vs control, the “T50 (% vs control)” value ([2]; Rate 2 μM) was −1.4 % vs control and the “Slope (% vs control)” value ([2]; Rate 10 μM) was 63.91 % vs control. For the same compound, the “T50 (% vs control)” value ([2]; Rate 10 μM) was −8.95 % vs control, the “Slope (% vs control)” value ([2]; Rate 50 μM) was 144.52 % vs control and the “T50 (% vs control)” value ([2]; Rate 50 μM) was −11.7 % vs control. The “Slope (% vs control)” value ([3]; Rate 0.4 μM) was 14.2 % vs control, the “T50 (% vs control)” value ([3]; Rate 0.4 μM) was 0.5 % vs control and the “Slope (% vs control)” value ([3]; Rate 2 μM) was 11.7 % vs control. For the same compound, the “T50 (% vs control)” value ([3]; Rate 2 μM) was −0.3 % vs control, the “Slope (% vs control)” value ([3]; Rate 10 μM) was 83.9 % vs control and the “T50 (% vs control)” value ([3]; Rate 10 μM) was −10.7 % vs control. The “Slope (% vs control)” value ([3]; Rate 50 μM) was 61.2 % vs control, the “T50 (% vs control)” value ([3]; Rate 50 μM) was −5.1 % vs control and the “Slope (% vs control)” value ([4]; Rate 0.4 μM) was 4.1 % vs control. The “T50 (% vs control)” value ([4]; Rate 0.4 μM) was −0.4 % vs control, the “Slope (% vs control)” value ([4]; Rate 2 μM) was 2.8 % vs control and the “T50 (% vs control)” value ([4]; Rate 2 μM) was 3.3 % vs control. For the same compound, the “Slope (% vs control)” value ([4]; Rate 10 μM) was 70.8 % vs control, the “T50 (% vs control)” value ([4]; Rate 10 μM) was −10.2 % vs control and the “Slope (% vs control)” value ([4]; Rate 50 μM) was 111.4 % vs control. The “T50 (% vs control)” value ([4]; Rate 50 μM) was −15.2 % vs control, the “Slope (% vs control)” value ([5]; Rate 0.4 μM) was 2.7 % vs control and the “T50 (% vs control)” value ([5]; Rate 0.4 μM) was −0.8 % vs control. The “Slope (% vs control)” value ([5]; Rate 2 μM) was 3.2 % vs control, the “T50 (% vs control)” value ([5]; Rate 2 μM) was −0.8 % vs control and the “Slope (% vs control)” value ([5]; Rate 10 μM) was 20.9 % vs control. The “T50 (% vs control)” value ([5]; Rate 10 μM) was −2.8 % vs control, the “Slope (% vs control)” value ([5]; Rate 50 μM) was 1.3 % vs control and the “T50 (% vs control)” value ([5]; Rate 50 μM) was −4.3 % vs control.
In the case of CC1=CC(O/C=C2/C(=O)OC3c4ccccc4CC23)N(c2cc(C(F)(F)F)cc(C(F)(F)F)c2)C1=O (stereo not drawn) [Compound P2, reference compound], the “Slope (% vs control)” value ([2]; Rate 2 μM) was −19.5 % vs control, the “T50 (% vs control)” value ([2]; Rate 2 μM) was −0.8 % vs control and the “Slope (% vs control)” value ([2]; Rate 10 μM) was −13.4 % vs control. The “T50 (% vs control)” value ([2]; Rate 10 μM) was −2.0 % vs control, the “Slope (% vs control)” value ([2]; Rate 50 μM) was −19.7 % vs control and the “T50 (% vs control)” value ([2]; Rate 50 μM) was −0.9 % vs control.
